The values below come from patent US6825209B2, “Compounds having unique CB1 receptor binding selectivity and methods for their production and use” (Research Triangle Institute, priority 2002, dated 2004).

The target in one test is T1, CB1 receptor (Rattus norvegicus, UniProt P20272).
T1 construct: Whole rat brains or dissected regions from live CD rats; tissue Charles River or Pel-Freez Biologicals; host or cells: whole rat brain (CD rats), P2 membrane
T1 sequence (P20272 whole entry): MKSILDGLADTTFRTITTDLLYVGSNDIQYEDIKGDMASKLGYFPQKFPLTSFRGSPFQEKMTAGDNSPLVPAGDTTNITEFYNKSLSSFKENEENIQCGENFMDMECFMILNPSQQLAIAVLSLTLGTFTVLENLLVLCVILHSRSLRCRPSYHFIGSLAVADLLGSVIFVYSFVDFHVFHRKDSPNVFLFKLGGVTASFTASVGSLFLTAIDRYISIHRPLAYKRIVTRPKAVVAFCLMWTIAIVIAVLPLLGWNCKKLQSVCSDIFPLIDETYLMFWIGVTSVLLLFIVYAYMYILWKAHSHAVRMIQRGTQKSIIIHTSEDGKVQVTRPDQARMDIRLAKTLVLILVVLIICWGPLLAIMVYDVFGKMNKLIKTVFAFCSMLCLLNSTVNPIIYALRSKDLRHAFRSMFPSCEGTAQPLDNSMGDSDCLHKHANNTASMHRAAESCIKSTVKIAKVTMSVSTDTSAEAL
The test is described as follows: Radioligand displacement in whole rat brain (CB1) membrane preparations. The note with it: Ki, displacement of 3H-CP55940, whole rat brain; 3H-CP55940; Table 4, parallel synthesis analogs, n = 1, concentration assumes 100% yield. It counts as binding. From the text:
CB1 receptor affinity in rat brain.
Methods—membrane preparation from brain. The methods for tissue preparation are essentially those described by Devane et al. (1988) as modified by Compton et al. (1993) and later by Thomas et al. (1998). Whole rat brains or dissected regions from live CD rats from Charles River or Pel-Freez Biologicals (Rogers, Ark.), or human brain sections obtained from the National Disease Research Institute, were allowed to thaw to room temperature on ice. Both whole brain and dissected brain regions were used because different brain regions may express different cannabinoid receptor subtypes (Skaper et al., 1996; Thomas et al., 1998). The tissue was homogenized with a Kontes Potter-Elvehjem glass-Teflon grinding system (Fisher Scientific, Springfield, N.J.) in buffer 1 (320 mM sucrose, 2 mM EDTA, 5 mM MgCl2. The homogenate was centrifuged at 1600 g for 10 min. The supernatant was saved and combined with the two subsequent supernatants obtained from washing and 1600 g centrifugation of the P1 pellet. The combined supernatant fractions were then centrifuged at 39,000 g for 15 min. The P2 pellet was resuspended in 50 mL of buffer 2 (50 mM Tris.HCl, 2 mM EDTA, 5 mM MgCl2, pH 7.0), incubated at 37° C. for 10 min, then centrifuged at 23,000 g for 10 min. The P2 membrane was resuspended in 50 mL of buffer 2, incubated at 30° C. for 40 min, then centrifuged at 11,000 g for 15 min. The final wash-treated P2 pellet was resuspended in assay buffer 3 (50 mM Tris.HCl, 1 mM EDTA, 3 MM MgCl2, pH 7.4). Protein concentrations were determined by the method of Bradford (1976) using Coomassie brilliant blue dye (Bio-Rad, Richmond, Calif.) and BSA standards (bovine serum albumin, fatty acid free, Sigma Chemical Co., St. Louis, Mo.) prepared in assay buffer 3. The membrane preparation was divided into aliquots and stored at −80° C. For use in the binding assay, an aliquot of frozen membranes was thawed on ice and diluted to a concentration of ca. 0.2 mg/mL in assay buffer.
Methods—binding assay in brain membrane preparation. The methods for ligand binding are essentially those described by Devane et al. (1988) with the exception that we used a filtration assay. […] All cannabinoid analogs were prepared by suspension in buffer A from a 1-5 mg/mL ethanolic stock. Following incubation at 30° C. for 1 h, binding was terminated by vacuum filtration through pretreated filters in a 96-well sampling manifold (Millipore, Bedford, Mass.). Reaction vessels were washed at least 3 times with 1 mL of ice cold buffer B (50 mM Tris.HCl, 1 mg/mL BSA). The filter plates were air-dried and sealed on the bottom. Liquid scintillant was added to the wells and the top sealed. After incubating the plates in cocktail for at least 2 h, the radioactivity present was determined by liquid scintillation spectrometry. Assays were done in duplicate, and results represent the combined data of three to six independent experiments. All assays were performed in polypropylene test tubes. The GF/C glassfiber filter plates (Packard, Meriden, Conn.) were pretreated in buffer B for at least 1 h.
(§1) Data analysis. Saturation and displacement data were analyzed by unweighted nonlinear regression of receptor binding data. For displacement studies, curve-fitting and IC50 calculation were done with GraphPad Prism (GraphPad Software, Inc., San Diego, Calif.), which fits the data to one and two-site models and compares the two fits statistically. A similar approach was used for the analysis of isotherm data for calculation of Kd's. A two-site fit was accepted only if it was statistically significant (p<0.05) and the following results were not observed:
(§2) IC50 values were then converted to Ki values by reported methods (Cheng and Prusoff, 1973). The statistical evaluation of curve-fitting data allowed for a non-arbitrary conclusion based on the displacement data.
The compound `Cc1c(C(=O)N2CCc3ccccc3C2)nn(-c2ccc(Cl)cc2Cl)c1-c1ccc(Cl)cc1` [AM-50] yielded a Ki of 194 nM.

Regarding `CCCCCC(C)NC(=O)c1nn(-c2ccc(Cl)cc2Cl)c(-c2ccc(Cl)cc2)c1C` (stereo not drawn) [AKS-10262-1], the Ki is 10.7 nM.

The test is the same for the next values; noted with them: Ki, displacement of 3H-SR141716A, whole rat brain; 3H-SR141716A; Table 4, parallel synthesis analogs, n = 1, concentration assumes 100% yield.
Consider `Cc1c(C(=O)N2CCc3ccccc3C2)nn(-c2ccc(Cl)cc2Cl)c1-c1ccc(Cl)cc1` [AM-50], for which the Ki amounted to 44.6 nM.

For `CCCCCC(C)NC(=O)c1nn(-c2ccc(Cl)cc2Cl)c(-c2ccc(Cl)cc2)c1C` (stereo not drawn) [AKS-10262-1], affinity was put at a Ki of 2.6 nM.

Still in this test, the particulars now being: Ki, displacement of 3H-WIN55212-2, whole rat brain; 3H-WIN55212-2; Table 4, parallel synthesis analogs, n = 1, concentration assumes 100% yield.
Consider `Cc1c(C(=O)N2CCc3ccccc3C2)nn(-c2ccc(Cl)cc2Cl)c1-c1ccc(Cl)cc1` [AM-50], for which the affinity, expressed as Ki, was 152 nM.

The compound `CCCCCC(C)NC(=O)c1nn(-c2ccc(Cl)cc2Cl)c(-c2ccc(Cl)cc2)c1C` (stereo not drawn) [AKS-10262-1] displayed a Ki of 1.84 nM.

Still in this test, the particulars now being: whole rat brain; 3H-CP55940; Table 4, parallel synthesis analogs, n = 1.
`Cc1c(C(=O)N2CCc3ccccc3C2)nn(-c2ccc(Cl)cc2Cl)c1-c1ccc(Cl)cc1` [AM-50]: the “Max. Disp. %, 3H-CP55940” value is 88.3%.

For `CCCCCC(C)NC(=O)c1nn(-c2ccc(Cl)cc2Cl)c(-c2ccc(Cl)cc2)c1C` (stereo not drawn) [AKS-10262-1], the “Max. Disp. %, 3H-CP55940” value amounted to 98.2%.

The test is the same for the next values; noted with them: whole rat brain; 3H-SR141716A; Table 4, parallel synthesis analogs, n = 1.
On to `Cc1c(C(=O)N2CCc3ccccc3C2)nn(-c2ccc(Cl)cc2Cl)c1-c1ccc(Cl)cc1` [AM-50], for which the “Max. Disp. %, 3H-SR141716A” value amounted to 90.5%.

As to `CCCCCC(C)NC(=O)c1nn(-c2ccc(Cl)cc2Cl)c(-c2ccc(Cl)cc2)c1C` (stereo not drawn) [AKS-10262-1], the “Max. Disp. %, 3H-SR141716A” value was 96.5%.

The test is the same for the next values; noted with them: whole rat brain; 3H-WIN55212-2; Table 4, parallel synthesis analogs, n = 1.
Regarding `Cc1c(C(=O)N2CCc3ccccc3C2)nn(-c2ccc(Cl)cc2Cl)c1-c1ccc(Cl)cc1` [AM-50], the “Max. Disp. %, 3H-WIN55212-2” value is 89.0%.

On to `CCCCCC(C)NC(=O)c1nn(-c2ccc(Cl)cc2Cl)c(-c2ccc(Cl)cc2)c1C` (stereo not drawn) [AKS-10262-1], for which the “Max. Disp. %, 3H-WIN55212-2” value amounted to 89.0%.

The target of a further test is T2, human CB1 receptor (Homo sapiens, UniProt P21554).
T2 construct: expressed in transfected cells; host or cells: HEK-293
T2 sequence (P21554 whole entry): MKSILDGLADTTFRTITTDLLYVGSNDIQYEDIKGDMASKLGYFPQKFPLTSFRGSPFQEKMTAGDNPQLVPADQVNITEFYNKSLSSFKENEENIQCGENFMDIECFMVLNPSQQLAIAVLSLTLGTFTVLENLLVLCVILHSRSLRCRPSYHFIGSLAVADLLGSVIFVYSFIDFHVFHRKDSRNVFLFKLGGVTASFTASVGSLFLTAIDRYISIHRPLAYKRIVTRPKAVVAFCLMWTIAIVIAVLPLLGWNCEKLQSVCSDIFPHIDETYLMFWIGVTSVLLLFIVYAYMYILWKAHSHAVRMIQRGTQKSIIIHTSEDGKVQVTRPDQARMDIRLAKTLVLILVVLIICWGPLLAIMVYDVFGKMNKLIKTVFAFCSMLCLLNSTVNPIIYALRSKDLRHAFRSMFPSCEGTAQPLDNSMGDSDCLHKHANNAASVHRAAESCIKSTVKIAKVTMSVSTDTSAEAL
The test is described as follows: Radioligand displacement in human CB1 receptor-transfected cells (HEK-293). In kind it is binding.
Conditions: not given
The method, then: Human CB1 receptor affinity. The alkyl amide analogs of the present invention were examined using transfected cell lines expressing the human CB1 receptor (Table 3).
Methods—binding assay in transfected cell lines. The methods used for performing binding assays in transfected cells expressing human CB1 or CB2 receptors are those used above. The CB1 receptor involved a HEK-293 expression system whereas the CB2 receptor was expressed in CHO-K1 cells. […] The incubations and separations were then performed as described above for rat brain membrane preparations.
as §1, §2
As to `CCCCCC(C)NC(=O)c1nn(-c2ccc(Cl)cc2Cl)c(-c2ccc(Cl)cc2)c1C` (stereo not drawn) [AKS-10262-1], the “Max. Disp. %, 3H-CP55940” value was 80.7%; the “Max. Disp. %, 3H-SR141716A” value is reported as 95.6%; the “Max. Disp. %, 3H-WIN55212-2” value was determined as 100%.

The test is the same for the next values; noted with them: Ki, displacement of 3H-CP55940.
As to `CCCCCC(C)NC(=O)c1nn(-c2ccc(Cl)cc2Cl)c(-c2ccc(Cl)cc2)c1C` (stereo not drawn) [AKS-10262-1], the inhibitory constant (Ki) is 11.9 nM. This lies in the double-digit nanomolar range.

The same test, now with this note: Ki, displacement of 3H-CP55940, human CB1 transfected cells; 3H-CP55940; Table 5, parallel synthesis analogs, concentration assumes 100% yield.
Compound `Cc1c(C(=O)N2CCc3ccccc3C2)nn(-c2ccc(Cl)cc2Cl)c1-c1ccc(Cl)cc1` [AM-50] came in with a Ki of 57.7 nM.

Still in this test, the particulars now being: Ki, displacement of 3H-SR141716A.
Regarding `CCCCCC(C)NC(=O)c1nn(-c2ccc(Cl)cc2Cl)c(-c2ccc(Cl)cc2)c1C` (stereo not drawn) [AKS-10262-1], affinity was put at a Ki of 2.02 nM.

Staying with this test, now noted: Ki, displacement of 3H-SR141716A, human CB1 transfected cells; 3H-SR141716A; Table 5, parallel synthesis analogs, concentration assumes 100% yield.
As to `Cc1c(C(=O)N2CCc3ccccc3C2)nn(-c2ccc(Cl)cc2Cl)c1-c1ccc(Cl)cc1` [AM-50], affinity was put at a Ki of 21 nM. This counts as double-digit nanomolar.

Still in this test, the particulars now being: Ki, displacement of 3H-WIN55212-2.
Regarding `CCCCCC(C)NC(=O)c1nn(-c2ccc(Cl)cc2Cl)c(-c2ccc(Cl)cc2)c1C` (stereo not drawn) [AKS-10262-1], the Ki worked out at 54.6 nM.

The same test, now with this note: Ki, displacement of 3H-WIN55212-2, human CB1 transfected cells; 3H-WIN55212-2; Table 5, parallel synthesis analogs, concentration assumes 100% yield.
In turn, `Cc1c(C(=O)N2CCc3ccccc3C2)nn(-c2ccc(Cl)cc2Cl)c1-c1ccc(Cl)cc1` [AM-50] returned an inhibition constant Ki of 166 nM. This lies in the sub-micromolar range.

The test is the same for the next values; noted with them: human CB1 transfected cells; 3H-CP55940; Table 5, parallel synthesis analogs.
Regarding `Cc1c(C(=O)N2CCc3ccccc3C2)nn(-c2ccc(Cl)cc2Cl)c1-c1ccc(Cl)cc1` [AM-50], the “Max. Disp. %, 3H-CP55940” value is listed as 66.3%.

The same test, now with this note: human CB1 transfected cells; 3H-SR141716A; Table 5, parallel synthesis analogs.
With `Cc1c(C(=O)N2CCc3ccccc3C2)nn(-c2ccc(Cl)cc2Cl)c1-c1ccc(Cl)cc1` [AM-50], the “Max. Disp. %, 3H-SR141716A” value is reported as 90.4%.

The test is the same for the next values; noted with them: human CB1 transfected cells; 3H-WIN55212-2; Table 5, parallel synthesis analogs.
Turning to `Cc1c(C(=O)N2CCc3ccccc3C2)nn(-c2ccc(Cl)cc2Cl)c1-c1ccc(Cl)cc1` [AM-50], the “Max. Disp. %, 3H-WIN55212-2” value stood at 74.6%.
